Laboratory results from patent US10167262B2, “Herbicidal substituted 3-arylpyrazoles” (FMC CORPORATION, priority 2014, dated 2019).

How the values were obtained:
Format in all cases: in vivo
[1] = tested on: ducksalad (Heteranthera limosa); experiment: Test B flooded paddy test, plant response rating 0-100; details: Flood, 250 g ai/ha; scale 0 to 100 (0 no effect, 100 complete control); 13 to 15 days
From the text: (§1) At time of treatment, test pots were flooded to 3 cm above the soil surface, treated by application of test compounds directly to the paddy water, and then maintained at that water depth for the duration of the test. Treated plants and controls were maintained in a greenhouse for 13 to 15 days, after which time all species were compared to controls and visually evaluated. […] A dash (-) response means no test result.

[2] = tested on: barnyardgrass (Echinochloa crus-galli); experiment: as above; details: Flood, 250 g ai/ha; scale 0 to 100 (0 no effect, 100 complete control); 13 to 15 days
From the text: as §1

[3] = tested on: rice (Oryza sativa); experiment: as above; details: Flood, 250 g ai/ha; scale 0 to 100 (0 no effect, 100 complete control); 13 to 15 days
From the text: as §1

[4] = tested on: sedge, umbrella (small-flower umbrella sedge, Cyperus difformis); experiment: as above; details: Flood, 250 g ai/ha; scale 0 to 100 (0 no effect, 100 complete control); 13 to 15 days
From the text: as §1

[5] = tested on: morningglory (Ipomoea spp.); experiment: Test A pre-/postemergence greenhouse herbicide test, visual injury rating 0-100
Outline: (§2)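 Test chemicals in a non-phytotoxic solvent/surfactant blend were sprayed onto loam–sand soil after planting (pre) and onto 2–10 cm seedlings at one to two leaves (post). Greenhouse hold approx. 10 days; injury then judged visually.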

[6] = tested on: barnyardgrass (Echinochloa crus-galli); experiment: as above
Outline: as §2

[7] = tested on: wheat (Triticum aestivum); experiment: as above
Outline: as §2

[8] = tested on: pigweed (Amaranthus retroflexus); experiment: as above
Outline: as §2

[9] = tested on: velvetleaf (Abutilon theophrasti); experiment: as above
Outline: as §2

[10] = tested on: corn (Zea mays); experiment: as above
Outline: as §2

[11] = tested on: large (Lg) crabgrass (Digitaria sanguinalis); experiment: as above
Outline: as §2

[12] = tested on: giant foxtail (Setaria faberii); experiment: as above
Outline: as §2

O=C(c1cncc(F)c1)c1c[nH]nc1-c1cc(F)cc(F)c1 [Compound 23]
Plant response rating, Ducksalad [1]: 0 | Plant response rating, Barnyardgrass [2]: 0 | Plant response rating, Rice [3]: 0 | Plant response rating, Sedge, Umbrella [4]: 0 | Plant response rating (0 to 100 scale), Morningglory ([5]; Postemergence, 125 g ai/ha): 0 | Plant response rating (0 to 100 scale), Morningglory ([5]; Postemergence, 500 g ai/ha): 0 | Morningglory plant response rating (0 = no effect, 100 = complete control) ([5]; Preemergence, 125 g ai/ha): 0 | Plant response rating (0 to 100 scale), Morningglory ([5]; Preemergence, 500 g ai/ha): 0 | Plant response rating (0 to 100 scale), Barnyardgrass ([6]; Postemergence, 125 g ai/ha): 0 | Plant response rating (0 to 100 scale), Barnyardgrass ([6]; Postemergence, 500 g ai/ha): 0 | Barnyardgrass plant response rating (0 = no effect, 100 = complete control) ([6]; Preemergence, 125 g ai/ha): 0 | Plant response rating (0 to 100 scale), Barnyardgrass ([6]; Preemergence, 500 g ai/ha): 0 | Plant response rating (0 to 100 scale), Wheat ([7]; Postemergence, 125 g ai/ha): 0 | Plant response rating (0 to 100 scale), Wheat ([7]; Postemergence, 500 g ai/ha): 0 | Wheat plant response rating (0 = no effect, 100 = complete control) ([7]; Preemergence, 125 g ai/ha): 0 | Plant response rating (0 to 100 scale), Wheat ([7]; Preemergence, 500 g ai/ha): 0 | Plant response rating (0 to 100 scale), Pigweed ([8]; Postemergence, 125 g ai/ha): 50 | Plant response rating (0 to 100 scale), Pigweed ([8]; Postemergence, 500 g ai/ha): 60 | Pigweed plant response rating (0 = no effect, 100 = complete control) ([8]; Preemergence, 125 g ai/ha): 70 | Plant response rating (0 to 100 scale), Pigweed ([8]; Preemergence, 500 g ai/ha): 100 | Plant response rating (0 to 100 scale), Velvetleaf ([9]; Postemergence, 125 g ai/ha): 0 | Plant response rating (0 to 100 scale), Velvetleaf ([9]; Postemergence, 500 g ai/ha): 40 | Velvetleaf plant response rating (0 = no effect, 100 = complete control) ([9]; Preemergence, 125 g ai/ha): 60 | Plant response rating (0 to 100 scale), Velvetleaf ([9]; Preemergence, 500 g ai/ha): 90 | Plant response rating (0 to 100 scale), Corn ([10]; Postemergence, 125 g ai/ha): 0 | Plant response rating (0 to 100 scale), Corn ([10]; Postemergence, 500 g ai/ha): 0 | Corn plant response rating (0 = no effect, 100 = complete control) ([10]; Preemergence, 125 g ai/ha): 0 | Plant response rating (0 to 100 scale), Corn ([10]; Preemergence, 500 g ai/ha): 0 | Plant response rating (0 to 100 scale), Crabgrass, Large ([11]; Postemergence, 125 g ai/ha): 0 | Plant response rating (0 to 100 scale), Crabgrass, Large ([11]; Postemergence, 500 g ai/ha): 0 | Plant response rating (0 to 100 scale), Crabgrass, Large ([11]; Preemergence, 500 g ai/ha): 0 | Plant response rating (0 to 100 scale), Foxtail, Giant ([12]; Postemergence, 125 g ai/ha): 0 | Plant response rating (0 to 100 scale), Foxtail, Giant ([12]; Postemergence, 500 g ai/ha): 0 | Foxtail, Giant plant response rating (0 = no effect, 100 = complete control) ([12]; Preemergence, 125 g ai/ha): 0 | Plant response rating (0 to 100 scale), Foxtail, Giant ([12]; Preemergence, 500 g ai/ha): 0

CCn1cc(C(=O)c2cccs2)c(-c2cc(F)cc(Cl)c2)n1 [Compound 24]
Plant response rating, Ducksalad [1]: 0 | Plant response rating, Barnyardgrass [2]: 0 | Plant response rating, Rice [3]: 0 | Plant response rating, Sedge, Umbrella [4]: 0 | Plant response rating (0 to 100 scale), Morningglory ([5]; Postemergence, 125 g ai/ha): 0 | Plant response rating (0 to 100 scale), Morningglory ([5]; Postemergence, 500 g ai/ha): 10 | Morningglory plant response rating (0 = no effect, 100 = complete control) ([5]; Preemergence, 125 g ai/ha): 0 | Plant response rating (0 to 100 scale), Morningglory ([5]; Preemergence, 500 g ai/ha): 0 | Plant response rating (0 to 100 scale), Barnyardgrass ([6]; Postemergence, 125 g ai/ha): 0 | Plant response rating (0 to 100 scale), Barnyardgrass ([6]; Postemergence, 500 g ai/ha): 10 | Barnyardgrass plant response rating (0 = no effect, 100 = complete control) ([6]; Preemergence, 125 g ai/ha): 0 | Plant response rating (0 to 100 scale), Barnyardgrass ([6]; Preemergence, 500 g ai/ha): 0 | Plant response rating (0 to 100 scale), Wheat ([7]; Postemergence, 125 g ai/ha): 0 | Plant response rating (0 to 100 scale), Wheat ([7]; Postemergence, 500 g ai/ha): 0 | Wheat plant response rating (0 = no effect, 100 = complete control) ([7]; Preemergence, 125 g ai/ha): 0 | Plant response rating (0 to 100 scale), Wheat ([7]; Preemergence, 500 g ai/ha): 0 | Plant response rating (0 to 100 scale), Pigweed ([8]; Postemergence, 125 g ai/ha): 80 | Plant response rating (0 to 100 scale), Pigweed ([8]; Postemergence, 500 g ai/ha): 100 | Pigweed plant response rating (0 = no effect, 100 = complete control) ([8]; Preemergence, 125 g ai/ha): 60 | Plant response rating (0 to 100 scale), Pigweed ([8]; Preemergence, 500 g ai/ha): 80 | Plant response rating (0 to 100 scale), Velvetleaf ([9]; Postemergence, 125 g ai/ha): 40 | Plant response rating (0 to 100 scale), Velvetleaf ([9]; Postemergence, 500 g ai/ha): 90 | Velvetleaf plant response rating (0 = no effect, 100 = complete control) ([9]; Preemergence, 125 g ai/ha): 0 | Plant response rating (0 to 100 scale), Velvetleaf ([9]; Preemergence, 500 g ai/ha): 0 | Plant response rating (0 to 100 scale), Corn ([10]; Postemergence, 125 g ai/ha): 0 | Plant response rating (0 to 100 scale), Corn ([10]; Postemergence, 500 g ai/ha): 0 | Corn plant response rating (0 = no effect, 100 = complete control) ([10]; Preemergence, 125 g ai/ha): 0 | Plant response rating (0 to 100 scale), Corn ([10]; Preemergence, 500 g ai/ha): 0 | Plant response rating (0 to 100 scale), Crabgrass, Large ([11]; Postemergence, 125 g ai/ha): 10 | Plant response rating (0 to 100 scale), Crabgrass, Large ([11]; Postemergence, 500 g ai/ha): 20 | Crabgrass, Large plant response rating (0 = no effect, 100 = complete control) ([11]; Preemergence, 125 g ai/ha): 0 | Plant response rating (0 to 100 scale), Crabgrass, Large ([11]; Preemergence, 500 g ai/ha): 20 | Plant response rating (0 to 100 scale), Foxtail, Giant ([12]; Postemergence, 125 g ai/ha): 0 | Plant response rating (0 to 100 scale), Foxtail, Giant ([12]; Postemergence, 500 g ai/ha): 10 | Foxtail, Giant plant response rating (0 = no effect, 100 = complete control) ([12]; Preemergence, 125 g ai/ha): 0 | Plant response rating (0 to 100 scale), Foxtail, Giant ([12]; Preemergence, 500 g ai/ha): 0

O=C(c1ccccc1)c1cn(C(=O)C2CC2)nc1-c1cc(Cl)cc(Cl)c1 [Compound 26]
Plant response rating, Ducksalad [1]: 0 | Plant response rating, Barnyardgrass [2]: 0 | Plant response rating, Rice [3]: 0 | Plant response rating, Sedge, Umbrella [4]: 0 | Plant response rating (0 to 100 scale), Morningglory ([5]; Postemergence, 125 g ai/ha): 0 | Plant response rating (0 to 100 scale), Morningglory ([5]; Postemergence, 500 g ai/ha): 0 | Morningglory plant response rating (0 = no effect, 100 = complete control) ([5]; Preemergence, 125 g ai/ha): 0 | Plant response rating (0 to 100 scale), Morningglory ([5]; Preemergence, 500 g ai/ha): 0 | Plant response rating (0 to 100 scale), Barnyardgrass ([6]; Postemergence, 125 g ai/ha): 0 | Plant response rating (0 to 100 scale), Barnyardgrass ([6]; Postemergence, 500 g ai/ha): 0 | Barnyardgrass plant response rating (0 = no effect, 100 = complete control) ([6]; Preemergence, 125 g ai/ha): 0 | Plant response rating (0 to 100 scale), Barnyardgrass ([6]; Preemergence, 500 g ai/ha): 0 | Plant response rating (0 to 100 scale), Wheat ([7]; Postemergence, 125 g ai/ha): 0 | Plant response rating (0 to 100 scale), Wheat ([7]; Postemergence, 500 g ai/ha): 0 | Wheat plant response rating (0 = no effect, 100 = complete control) ([7]; Preemergence, 125 g ai/ha): 0 | Plant response rating (0 to 100 scale), Wheat ([7]; Preemergence, 500 g ai/ha): 0 | Plant response rating (0 to 100 scale), Pigweed ([8]; Postemergence, 125 g ai/ha): 40 | Plant response rating (0 to 100 scale), Pigweed ([8]; Postemergence, 500 g ai/ha): 80 | Pigweed plant response rating (0 = no effect, 100 = complete control) ([8]; Preemergence, 125 g ai/ha): 0 | Plant response rating (0 to 100 scale), Pigweed ([8]; Preemergence, 500 g ai/ha): 0 | Plant response rating (0 to 100 scale), Velvetleaf ([9]; Postemergence, 125 g ai/ha): 50 | Plant response rating (0 to 100 scale), Velvetleaf ([9]; Postemergence, 500 g ai/ha): 80 | Velvetleaf plant response rating (0 = no effect, 100 = complete control) ([9]; Preemergence, 125 g ai/ha): 0 | Plant response rating (0 to 100 scale), Velvetleaf ([9]; Preemergence, 500 g ai/ha): 0 | Plant response rating (0 to 100 scale), Corn ([10]; Postemergence, 125 g ai/ha): 0 | Plant response rating (0 to 100 scale), Corn ([10]; Postemergence, 500 g ai/ha): 0 | Corn plant response rating (0 = no effect, 100 = complete control) ([10]; Preemergence, 125 g ai/ha): 0 | Plant response rating (0 to 100 scale), Corn ([10]; Preemergence, 500 g ai/ha): 0 | Plant response rating (0 to 100 scale), Crabgrass, Large ([11]; Postemergence, 125 g ai/ha): 0 | Plant response rating (0 to 100 scale), Crabgrass, Large ([11]; Postemergence, 500 g ai/ha): 0 | Crabgrass, Large plant response rating (0 = no effect, 100 = complete control) ([11]; Preemergence, 125 g ai/ha): 0 | Plant response rating (0 to 100 scale), Crabgrass, Large ([11]; Preemergence, 500 g ai/ha): 0 | Plant response rating (0 to 100 scale), Foxtail, Giant ([12]; Postemergence, 125 g ai/ha): 0 | Plant response rating (0 to 100 scale), Foxtail, Giant ([12]; Postemergence, 500 g ai/ha): 0 | Foxtail, Giant plant response rating (0 = no effect, 100 = complete control) ([12]; Preemergence, 125 g ai/ha): 0 | Plant response rating (0 to 100 scale), Foxtail, Giant ([12]; Preemergence, 500 g ai/ha): 0
